Test results published in article PMC7180452, “Purine and Purine Isostere Derivatives of Ferrocene: An Evaluation of ADME, Antitumor and Electrochemical Properties” (Molecules, 2020).

Key:
[1] = tested on: metastatic colorectal adenocarcinoma (SW620); assay: In vitro antiproliferative activity, SW620; format: cell-based, human; conditions: SW620 cells
Procedure: (§1) Antiproliferative activity of compounds 11a−11c, 12a−12c, 13a−13c, 14a−14c, 15a−15c, 16a, 23a−23c, 24a−24c, 25a−25c, 34a−34c and 35a−35c was evaluated in vitro on four human tumor cell lines (American Type Culture Collection, Manassas, VA, USA): metastatic colorectal adenocarcinoma (SW620), ductal pancreatic adenocarcinoma (CFPAC-1), hepatocellular carcinoma (HepG2) and cervical carcinoma (HeLa) as well as normal skin fibroblasts (HFF).

[2] = tested on: hepatocellular carcinoma (HepG2); assay: In vitro antiproliferative activity, HepG2; format: cell-based, human; conditions: HepG2 cells
Procedure: as §1

[3] = tested on: cervical carcinoma (HeLa); assay: In vitro antiproliferative activity, HeLa; format: cell-based, human; conditions: HeLa cells
Procedure: as §1

[4] = tested on: normal skin fibroblasts (HFF); assay: Cytotoxicity on non-tumor cells, HFF; format: cell-based, human
Procedure: as §1

[5] = Metabolic stability in mouse liver microsomes; format: in vitro ADME; conditions: for t1/2: mouse liver microsomes, 1 µM; for In Vivo CLh / In Vivo CLh (% LBF): mouse; for In Vivo CLh: predicted in vivo hepatic clearance; for In Vivo CLh (% LBF): predicted, % of liver blood flow
Procedure: Metabolic stability of compounds was assessed in human and mouse liver microsomes (Corning, Tewksbury, MA, USA). Compounds, in final concentration of 1 µM, were incubated in phosphate buffer (50 mM, pH 7.4) for 60 min at 37 °C together with liver microsomes and NADPH generating system (nicotinamide adenine dinucleotide phosphate (NADP, 0.5 mM), glucose-6-phosphate (G6P, 5 mM), glucose-6-phosphate dehydrogenase (1.5 U mL^−1) and magnesium chloride (0.5 mM)). Also, compounds were incubated without the presence of NADPH cofactor, as a buffer stability control. Metabolic activity of liver microsomes was verified by including testosterone and propranolol as positive controls, as well as caffeine as a negative control. Sampling was performed at six time points (0, 10, 20, 30, 45 and 60 min), followed by reaction termination by addition of acetonitrile/methanol mixture (2:1, v/v) containing dicofenac as internal standard. Samples were analyzed as previously described for samples from permeability assay. The in vitro half-life (t1/2) was calculated from the slope of the linear regression by plotting ln % remaining of parent compound against incubation time. In vitro intrinsic clearance, CLint was calculated from half-life using following Equation (3):(3) CLint [µL min^−1 mg^−1]=ln2/t1/2×mL per incubation/mg protein per incubation where 52.5 mg protein/g liver is used as a constant.
Predicted in vivo hepatic clearance, in vivo CLh was calculated as follows:(4) in vivo CLh [mL min^−1 kg^−1]=CLint×(mg protein/g liver)×Q×(LW/BW) /Q+(CLint×(mg protein/g liver)×(LW/BW)) where: LW/BW = liver weight/body weight [g kg^−1]; 25.7 (human), 87.5 (mouse); Q = LBF = liver blood flow [mL min^−1 kg^−1]; 21/1.26 (human), 131/7.86 (mouse).
Predicted in vivo hepatic clearance can be expressed as %LBF and calculated as follows:(5) in vivo CLh [%LBF]=in vivo CLh/LBF×100

[6] = Square-wave and cyclic voltammetry on glassy carbon electrode; format: physicochemical; conditions: SWV, 0.5 mol/L NaClO4, pH 9, vs Ag/AgCl
Description: The electrochemical properties of 6-chloro-7-deazapurine and 6-chloropurine derivatives of ferrocene 11c, 13a and 15b on a glassy carbon electrode were studied using cyclic (CV) and square-wave voltammetry (SWV) in aqueous electrolyte solutions over a wide pH range. The pH was varied from 2 to 10 in order to determine the effect of pH on the voltammograms (net peak currents and potentials). […] The pH of the solution affects the voltammetric response of this compound, i.e., the oxidation of evaluated compounds 11c, 13a and 15b is strongly dependent on it.
The forward (if) and backward (ib) components of the net response (Δi = if − ib) are shown as well (inset in Figure 2). […] The peak P1 occurs in all supporting electrolytes (i.e., at 2 ≤ pH ≤ 10), while the peak P2 is only observed at pH ≥ 9 (see Figure 1). The potential of peak P1 is pH-independent. Comparing to the literature data, peak P1 can be ascribed to the following charge transfer reaction [Fe^II(C5H5)2] ⇌ [Fe^III(C5H5)2]^+ + e^− [44, 48].
All chemicals used in the experiments were of the best grade commercially available (Sigma-Aldrich) and were used without further purification. Stock standard solutions of compounds 11c, 13a, 15b (c = 2.0 × 10^−3 mol/L) and 6-chloropurine (c = 1.2 × 10^−2 mol/L) were prepared from dry pure substances in dimethyl sulfoxide (DMSO, p.a.), purchased from Kemika (Zagreb, Croatia). Stock standard solution of ethynyl ferrocene (c = 1.1 × 10^−2 mol/L) was prepared from dry pure substance in ethanol (Kemika). For the supporting electrolyte, analytical grade NaClO4 (Kemika) was used. Water was deionized by the Millipore Milli-Q system to the resistivity ≥ 18 MΩcm. Voltammetric measurements were carried out using the computer-controlled electrochemical system „PGSTAT 101“ (Eco-Chemie, Utrecht, The Netherlands), controlled by the electrochemical software “NOVA 1.5”. A three-electrode system (BioLogic, Claix, France) with glassy carbon electrode (GCE) of 3 mm in diameter as a working electrode, Ag/AgCl (3 mol/L NaCl) as a reference electrode and a platinum wire as a counter electrode were used. All potentials were expressed versus Ag/AgCl (3 mol/L NaCl) reference electrode. The supporting electrolyte (0.5 mol/L NaClO4), adjusted to the desired pH value, was placed in the electrochemical cell and the required aliquot of the standard analyte solution was added. The solution in the electrochemical cell was degassed with high purity nitrogen for 10 min before measurement, and the nitrogen blanket was maintained thereafter. Before each run, the glassy carbon working electrode was polished with diamond suspension in spray (grain size 6 µm) and rinsed with ethanol and deionized water. All experiments were performed at room temperature. The presented results are reported as the mean value of three independent measurements.

IC50 [1] [µM] | IC50 [2] [µM] | IC50 [3] [µM] | t1/2 [5] [min] | In Vivo CLh [5] [mL/min/kg] | In Vivo CLh (% LBF) [5] [% LBF] | Oxidation peak P1 potential (ferrocene) [6] | Oxidation peak P2 potential (triazole) [6] | Structure (SMILES) | IC50 [4] [µM]
9.07 ± 1.21 | 31.9 ± 4.32 | 27.7 ± 3.23 | 1.3 | 25.6 | 99 | ~ 0.4 V | ~ 1.1 V | Clc1ncnc2c1ccn2Cc1cn(-[c-]2cccc2)nn1.[Fe+2].c1cc[cH-]c1 [Compound 11c, 4-Chloro-7-[1-(1-ferrocenyl-1,2,3-triazol-1-yl)methyl]-7H-pyrrolo[2,3-d]pyrimidine] | 5.89 ± 1.88
14.4 ± 3.02 | 19.9 ± 5.12 | 25.2 ± 4.31 | 5.5 | 25.1 | 98 | ~ 0.4 V | ~ 1.1 V | Clc1ncnc2c1ncn2Cc1cn(C[c-]2cccc2)nn1.[Fe+2].c1cc[cH-]c1 [Compound 13a, 6-Chloro-9-[1-(1-ferrocenymethyl-1,2,3-triazol-4-yl)methyl]-9H-purine] | 3.98 ± 0.17
15.5 ± 3.24 | 37.1 ± 1.84 | 28.97 ± 0.09 | 2.9 | 25.4 | 99 | ~ 0.4 V | ~ 1.1 V | CC([c-]1cccc1)n1cc(Cn2cnc3ncnc(Cl)c32)nn1.[Fe+2].c1cc[cH-]c1 (stereo not drawn) [Compound 15b, 6-Chloro-7-[1-(1-ferrocenyl-1-methylmethyl-1,2,3-triazol-4-yl)methyl]-7H-purine] | 0.88 ± 1.06
